Publication PMC8668183 (Biomedicine & Pharmacotherapy, 2021)
Where a name gives a salt, the structure may show the parent alone. Read-outs that look alike come from different tables or passages of the source.

How the values were obtained:
SARS-CoV-2 [1] = details: human prostate cells; cited from earlier work
SARS-CoV-2 [2] = details: human lung cells; cited from earlier work
SARS-CoV-2 [3] = details: cited from earlier work
CYP2C9 = CYP2C9 (Homo sapiens, UniProt P11712); assay: Fluorometric CYP2C9 activity assay in human liver microsomes; format: in vitro ADME; details: reference inhibitor at 60 µM, human hepatic microsomes
Sequence of CYP2C9 (P11712 whole entry): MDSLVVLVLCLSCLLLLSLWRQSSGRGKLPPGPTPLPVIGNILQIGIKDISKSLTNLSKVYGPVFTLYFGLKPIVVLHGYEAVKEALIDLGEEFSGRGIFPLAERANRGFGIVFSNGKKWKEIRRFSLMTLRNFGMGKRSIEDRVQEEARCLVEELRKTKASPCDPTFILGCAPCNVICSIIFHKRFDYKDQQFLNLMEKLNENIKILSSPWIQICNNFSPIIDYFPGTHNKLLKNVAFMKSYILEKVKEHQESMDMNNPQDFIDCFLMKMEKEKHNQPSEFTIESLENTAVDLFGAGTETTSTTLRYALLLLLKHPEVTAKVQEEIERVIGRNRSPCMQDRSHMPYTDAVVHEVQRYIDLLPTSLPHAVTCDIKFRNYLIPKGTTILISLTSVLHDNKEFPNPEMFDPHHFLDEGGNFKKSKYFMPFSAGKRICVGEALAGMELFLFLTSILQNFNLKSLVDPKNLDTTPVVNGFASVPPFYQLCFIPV

CYP1A2 = target: T1, CYP1A2 (Homo sapiens, UniProt P05177); assay: Fluorometric CYP1A2 activity assay in human liver microsomes; format: in vitro ADME; details: reference inhibitor at 6 µM, human hepatic microsomes
T1 sequence (P05177 1-516): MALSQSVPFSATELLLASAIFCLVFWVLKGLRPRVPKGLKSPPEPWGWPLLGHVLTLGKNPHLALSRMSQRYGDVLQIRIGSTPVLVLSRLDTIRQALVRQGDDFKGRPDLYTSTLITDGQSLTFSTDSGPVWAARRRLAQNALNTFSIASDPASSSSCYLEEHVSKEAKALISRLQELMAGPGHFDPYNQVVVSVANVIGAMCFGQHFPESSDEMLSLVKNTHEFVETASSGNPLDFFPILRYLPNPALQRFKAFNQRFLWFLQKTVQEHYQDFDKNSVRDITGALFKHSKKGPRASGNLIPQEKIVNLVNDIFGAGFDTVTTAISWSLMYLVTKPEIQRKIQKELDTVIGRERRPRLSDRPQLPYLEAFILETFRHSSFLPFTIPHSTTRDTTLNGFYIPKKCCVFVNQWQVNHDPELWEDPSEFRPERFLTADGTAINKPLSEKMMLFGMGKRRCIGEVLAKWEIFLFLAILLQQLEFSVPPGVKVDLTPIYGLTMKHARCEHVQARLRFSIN

## CNC(=O)c1ccc(N2C(=S)N(c3ccc(C#N)c(C(F)(F)F)c3)C(=O)C2(C)C)cc1F [enzalutamide]
SARS-CoV-2 [1]
  SARS-CoV-2 infection: suppressed mainly in human prostate cells
SARS-CoV-2 [2]
  SARS-CoV-2 infection: not in human lung cells

## N=C(N)c1ccc2cc(OC(=O)c3ccc(N=C(N)N)cc3)ccc2c1 [nafamostat mesylate]
SARS-CoV-2 [3]
  S protein-mediated fusion and SARS-CoV-2 entry into Calu-3 cells: could block successfully

## O=C(O)COc1ccc(C(=O)c2cccs2)c(Cl)c1Cl [tienilic acid]
CYP2C9
  effect on CYP2C9 activity: inhibited

## O=c1cc(-c2ccccc2)oc2c1ccc1ccccc12 [α-naphthoflavone]
CYP1A2
  effect on CYP1A2 activity: suppressed significantly
